Test systems include 786-0; A498; CCRF-CEM; EKVX; Hs-578T; IGROV-1; K562; LOX IMVI; OVCAR-4; OVCAR-8; RXF 393; SK-MEL-28; SK-MEL-5; SK-OV-3; SNB-19; TK-10; U-251; UACC-257; UACC-62; UO-31.
Common to all, as to experiment: NCI-60 cell line screen, 48 h

Molecules are shown by their SMILES.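 Assay format: 96-well plates, 48-hour exposure. The concentration for 50% growth inhibition is given as GI50.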 Active and inactive are the calls of the source. No stated cut-off is given here; in the data, active = GI50 up to about 1.1 µM and inactive = higher.

With `N=C(N)NC(=N)Nc1ccc(S(=O)(=O)O)cc1`, the GI50 in the test with 786-0, in the test with A498, with CCRF-CEM, in the test with EKVX, in the test on Hs-578T and with IGROV-1 was > 100 µM (inactive) throughout. Besides, the GI50 in the test on K562, in the test with LOX IMVI, in the test with OVCAR-4, in the test with OVCAR-8, in the test with RXF 393 and in the test with SK-MEL-28 was > 100 µM (inactive) in each case. Further, the GI50 in the test with SK-MEL-5, with SK-OV-3, in the test with SNB-19, with TK-10, in the test on U-251 and with UACC-257 was > 100 µM (inactive) throughout. For the same compound, the GI50 with UACC-62 and with UO-31 was > 100 µM (inactive) in each case.
With `c1cncc(CSc2ncnc3[nH]cnc23)c1`, the GI50 with 786-0, with A498, with CCRF-CEM, with EKVX, in the test on Hs-578T and in the test on IGROV-1 was > 100 µM (inactive) throughout. In addition, the GI50 in the test on K562, in the test with LOX IMVI, with OVCAR-4, in the test with OVCAR-8, in the test with RXF 393 and in the test with SK-MEL-28 was > 100 µM (inactive) in each case. Further, the GI50 in the test on SK-MEL-5, with SK-OV-3, with SNB-19, with TK-10, in the test with U-251 and in the test on UACC-257 was > 100 µM (inactive) throughout. The GI50 in the test on UACC-62 and with UO-31 was > 100 µM (inactive) throughout.
On to `Nc1nnnn1NC(=O)NCCCl`, for which the GI50 in the test with 786-0, with A498, in the test on CCRF-CEM, in the test on EKVX, with Hs-578T and in the test with IGROV-1 was > 10 µM (inactive) in each case. In addition, the GI50 in the test on K562, in the test with LOX IMVI, with OVCAR-4, with OVCAR-8, with RXF 393 and in the test on SK-MEL-28 was > 10 µM (inactive) throughout. Moreover, the GI50 in the test on SK-MEL-5, with SK-OV-3, in the test with SNB-19, in the test with TK-10, with U-251 and with UACC-257 was > 10 µM (inactive) in each case. For the same compound, the GI50 in the test on UACC-62 and in the test with UO-31 was > 10 µM (inactive) each time.
Turning to `COC(=O)/C=C(\S/C(=N\n1cc(C(=O)OC)c(C(=O)OC)c1-c1ccc(C)cc1)c1ccc(C)cc1)C(=O)OC`, the GI50 is 4.44 µM (inactive) in the test with 786-0; 12.8 µM (inactive) in the test on A498; 0.34 µM (active) in the test with CCRF-CEM; 15.7 µM (inactive) in the test on EKVX; 18.4 µM (inactive) with Hs-578T; 7.85 µM (inactive) with IGROV-1. Further, the GI50 in the test on K562 is 1.43 µM (inactive); in the test on LOX IMVI it was 2.84 µM (inactive); in the test on OVCAR-4 it was 1.58 µM (inactive); in the test with OVCAR-8 it was 12.9 µM (inactive); in the test on RXF 393, 5.47 µM (inactive); in the test with SK-MEL-28, 5.78 µM (inactive). In addition, the GI50 is 13.4 µM (inactive) with SK-MEL-5; 32.3 µM (inactive) in the test on SK-OV-3; 34 µM (inactive) in the test on SNB-19; 3.03 µM (inactive) in the test on TK-10; 5.66 µM (inactive) with U-251; 4.72 µM (inactive) in the test with UACC-257. Moreover, the GI50 in the test on UACC-62 was 12 µM (inactive); in the test with UO-31 it was 2.52 µM (inactive).
As to `O=C(NCCNCCNCCNC(=O)c1cc(-c2ccccc2)nc2ccccc12)c1cc(-c2ccccc2)nc2ccccc12`, the GI50 with 786-0 is 1.66 µM (inactive); in the test with A498, 3.16 µM (inactive); in the test on CCRF-CEM, 2.28 µM (inactive); with EKVX, 5.96 µM (inactive); in the test on Hs-578T it was 2.25 µM (inactive); with IGROV-1 it was 2.52 µM (inactive). Also, the GI50 with K562 is 1.94 µM (inactive); in the test on LOX IMVI it was 1.56 µM (inactive); in the test on OVCAR-4 it was 3.43 µM (inactive); in the test on OVCAR-8, 2.08 µM (inactive); with RXF 393 it was 2.02 µM (inactive); in the test with SK-MEL-28, 1.7 µM (inactive). Further, the GI50 was 1.52 µM (inactive) in the test with SK-MEL-5; 3.02 µM (inactive) in the test on SK-OV-3; 3.79 µM (inactive) in the test with SNB-19; 3.01 µM (inactive) in the test on TK-10; 1.73 µM (inactive) in the test on U-251; 1.72 µM (inactive) in the test on UACC-257. Further, the GI50 with UACC-62 was 2.05 µM (inactive); with UO-31, 6.9 µM (inactive).
As for `O=C(CC(O)(C(F)(F)Cl)C(F)(F)Cl)CC(O)(C(F)(F)Cl)C(F)(F)Cl`, the GI50 in the test on 786-0 was 2.89 µM (inactive); in the test on A498 it was 2.21 µM (inactive); in the test on CCRF-CEM, 2.29 µM (inactive); in the test with EKVX, 1.21 µM (inactive); in the test with Hs-578T it was 1.92 µM (inactive); in the test on IGROV-1, 2.17 µM (inactive). For the same compound, the GI50 with K562 was 0.843 µM (active); with LOX IMVI it was 3.83 µM (inactive); with OVCAR-4, 1.33 µM (inactive); in the test on OVCAR-8 it was 2.58 µM (inactive); in the test with RXF 393, 1.8 µM (inactive); in the test with SK-MEL-28, 1.95 µM (inactive). Further, the GI50 is 1.25 µM (inactive) with SK-MEL-5; 1.87 µM (inactive) in the test on SK-OV-3; 1.71 µM (inactive) with SNB-19; 1.81 µM (inactive) with TK-10; 1.65 µM (inactive) in the test on U-251; 1.41 µM (inactive) with UACC-257. Moreover, the GI50 in the test with UACC-62 is 0.738 µM (active); with UO-31, 0.929 µM (active).
On to `CC[n+]1c(/C=C/c2ccc(N(CCCl)CCCl)cc2)ccc2cc(NC(=O)/C=C/c3ccccc3)ccc21`, for which the GI50 in the test with 786-0 is 0.336 µM (active); in the test on A498, 10.3 µM (inactive); in the test with CCRF-CEM, 0.118 µM (active); in the test with EKVX it was 0.927 µM (active); in the test with Hs-578T, 0.0912 µM (active); in the test with IGROV-1, 0.31 µM (active). Besides, the GI50 is 0.134 µM (active) in the test on K562; 0.329 µM (active) with LOX IMVI; 0.254 µM (active) in the test with OVCAR-4; 0.406 µM (active) in the test on OVCAR-8; 0.315 µM (active) in the test with RXF 393; 0.762 µM (active) with SK-MEL-28. The GI50 was 0.174 µM (active) in the test with SK-MEL-5; 0.578 µM (active) in the test with SK-OV-3; 0.393 µM (active) in the test on SNB-19; 2.95 µM (inactive) with TK-10; 0.132 µM (active) with U-251; 0.787 µM (active) in the test on UACC-257. Besides, the GI50 was 0.646 µM (active) in the test on UACC-62 and 16.6 µM (inactive) in the test on UO-31.
As to `COc1cc(C(=O)OCCn2[nH]c(-c3ccc(Cl)cc3)nc2=S)cc(OC)c1OC`, the GI50 was 62.8 µM (inactive) with 786-0; > 100 µM (inactive) in the test on A498; 33 µM (inactive) with CCRF-CEM; 91.6 µM (inactive) with EKVX; 47.8 µM (inactive) in the test on Hs-578T; 47.8 µM (inactive) with K562. The GI50 is 72.4 µM (inactive) with LOX IMVI; 95.5 µM (inactive) in the test with OVCAR-4; 90.8 µM (inactive) with OVCAR-8; 1.33 µM (inactive) with RXF 393; 42.7 µM (inactive) in the test with SK-MEL-28; 48.2 µM (inactive) with SK-MEL-5. Also, the GI50 in the test with SK-OV-3 is > 100 µM (inactive); in the test with SNB-19 it was > 100 µM (inactive); with TK-10, 54.3 µM (inactive); with U-251, 83.8 µM (inactive); in the test on UACC-257 it was 44.1 µM (inactive); with UACC-62 it was > 100 µM (inactive). In the test on UO-31, the GI50 was 1.3 µM (inactive).
Turning to `c1cc2c3ccsc3c3sccc3c2s1`, the GI50 was 95.9 µM (inactive) in the test with 786-0; > 100 µM (inactive) in the test with A498; > 100 µM (inactive) with CCRF-CEM; > 100 µM (inactive) in the test on EKVX; 11.9 µM (inactive) with Hs-578T; 16.3 µM (inactive) in the test on IGROV-1. Moreover, the GI50 in the test on K562, in the test on LOX IMVI, in the test with OVCAR-4, in the test on OVCAR-8, in the test on RXF 393 and in the test on SK-MEL-28 was > 100 µM (inactive) in each case. In addition, the GI50 with SK-MEL-5, in the test with SK-OV-3, in the test with TK-10, with U-251, with UACC-257 and in the test with UACC-62 was > 100 µM (inactive) in each case. The GI50 with UO-31 is > 100 µM (inactive).
Turning to `COC(=O)CCC(NC(=O)OC(C)(C)C)C(=O)NC(Cc1ccc(NC(=O)CCCC(C)=O)cc1)C(=O)NC(CCC(=O)OC)C(=O)OC` (configuration not stated), the GI50 in the test on 786-0, with A498, in the test on CCRF-CEM, in the test on EKVX, in the test with Hs-578T and with IGROV-1 was > 100 µM (inactive) throughout. Also, the GI50 with K562, with LOX IMVI, in the test on OVCAR-4, in the test on OVCAR-8, in the test with RXF 393 and in the test with SK-MEL-28 was > 100 µM (inactive) throughout. Also, the GI50 with SK-MEL-5, in the test with SK-OV-3, in the test with SNB-19, in the test with TK-10, in the test on UACC-257 and in the test with UACC-62 was > 100 µM (inactive) throughout. Moreover, the GI50 in the test on UO-31 is > 100 µM (inactive).

(Values after ChEMBL document CHEMBL1201862, “PubChem BioAssay data set” (2004).)
